“Also recorded” adds a separate entry of the source.
These compounds were tested on intracellular O2- in stationary phase budding yeast cells (assay: High throughput flow cytometry DHE screen for reduction of superoxide in stationary phase budding yeast). Details: not given.
Format: cell-based, S. cerevisiae

| SMILES | decrease in superoxide signals (control compound) | dose dependency in re-screening (reduction of superoxide, DHE) |
| --- | --- | --- |
| Nc1nc[nH]n1 [3-aminotriazol, reference compound] | more robust and reproducible decrease in superoxide signals | – |
| CC(C)(C)n1nc(-c2ccc(Cl)cc2)c2c(N)ncnc21 [MLS000326622, 1-tert-butyl-3-(4-chlorophenyl)pyrazolo[3,4-d]pyrimidin-4-amine] | – | identified by dose dependency; also recorded: exhibited dose dependency |
| O=c1cccc2[nH]c3ccccc3nc1-2 [MLS000737174, 5H-phenazin-1-one] | – | identified by dose dependency; also recorded: exhibited dose dependency |
| Nc1cc2nc3ccccc3nc2cc1N [MLS001044416, phenazine-2,3-diamine] | – | identified by dose dependency; also recorded: exhibited dose dependency |
| CNc1ccc2nc3ccccc3[n+](C)c2c1.[O-][Cl+3]([O-])([O-])[O-] [MLS001164912, N,10-dimethylphenazin-10-ium-2-amine perchlorate] | – | identified by dose dependency; also recorded: exhibited dose dependency |
| C=C1[C@@H](O)[C@@H]2O[C@]3(CC[C@H](/C=C/[C@@H](C)[C@@H]4CC(C)=C[C@@]5(O[C@H](C[C@@](C)(O)C(=O)O)CC[C@H]5O)O4)O3)CC[C@H]2O[C@@H]1[C@@H](O)C[C@H](C)[C@H]1O[C@@]2(CCCCO2)CC[C@H]1C [MLS002320508, (2R)-3-[(4S,10S)-4-[(E)-4-[(2S,2′R,4aS,6R,8aR)-4-hydroxy-2-[1-hydroxy-3-[(10S)-9-methyl-5,11-dioxaspiro[5.5]undecan-10-yl]butyl]-3-methylidenespiro[4a,7,8,8a-tetrahydro-4H-pyran[3,2-b]pyran-6,5′-oxolane]-2′-yl]but-3-en-2-yl]-7-hydroxy-2-methyl-5,11-dioxaspiro[5.5]undec-1-en-10-yl]-2-hydroxy-2-methylpropanoic acid] | – | identified by dose dependency; also recorded: exhibited dose dependency |
| C[C@]12CCC3C(CC[C@H]4C[C@@H](O)CC[C@]34C)[C@H]1CC[C@H]2O (stereo partly drawn) [MLS002554375, (3S,5S,10S,13S,14R,17R)-10,13-dimethyl-2,3,4,5,6,7,8,9,11,12,14,15,16,17-tetradecahydro-1H-cyclopenta[a]phenanthrene-3,17-diol] | – | identified by dose dependency; also recorded: exhibited dose dependency |
| C[C@]12CCC3C(CC[C@H]4C[C@H](O)CC[C@]34C)C1CCC2=O (stereo partly drawn) [MLS002554454, (3R,5S,10S,13S)-3-hydroxy-10,13-dimethyl-1,2,3,4,5,6,7,8,9,11,12,14,15,16-tetradecahydrocyclopenta[a]phenanthren-17-one] | – | identified by dose dependency; also recorded: exhibited dose dependency |

Same assay, conditions: dose response assays from 0.004 uM to 30 uM; 7 day incubation, 7% glucose

| SMILES | dose dependency in re-screening (reduction of superoxide, DHE) |
| --- | --- |
| COc1ccc2c(c1)c1nnc(SC)nc1n2C [MLS000033501, 8-methoxy-5-methyl-3-methylsulfanyl-[1,2,4]triazino[5,6-b]indole] | identified by dose dependency; also recorded: exhibited dose dependency |
| CC(C)(C)Nc1ncnc2c1cnn2-c1ccccc1 [MLS000100785, N-tert-butyl-1-phenylpyrazolo[3,4-d]pyrimidin-4-amine] | identified by dose dependency; also recorded: exhibited dose dependency |
| O=C(/C=C/c1ccccc1)NC(=S)NNC(=O)Cc1cccs1 [MLS000121367, (E)-3-phenyl-N—[[(2-thiophen-2-ylacetyl)amino]carbamothioyl]prop-2-enamide] | identified by dose dependency; also recorded: exhibited dose dependency |
| CC(C)(C)n1nc(-c2ccc(F)cc2)c2c(N)ncnc21 [MLS000326584, 1-tert-butyl-3-(4-fluorophenyl)pyrazolo[3,4-d]pyrimidin-4-amine] | identified by dose dependency; also recorded: exhibited dose dependency |
| O=C(Nc1ccc2nc3ccccc3nc2c1)c1ccccc1 [MLS000418506, N-phenazin-2-ylbenzamide] | identified by dose dependency; also recorded: exhibited dose dependency |
| COc1ccc2c3c(cccc13)N(C)N=C2C [MLS000554700, 6-Methoxy-1,3-dimethyl-1H-benzo[de]cinnoline] | identified by dose dependency; also recorded: exhibited dose dependency |
| c1ccc2nc3ccccc3nc2c1 [MLS000584128, phenazine] | identified by dose dependency; also recorded: exhibited dose dependency |
| CCN(CC)C(=O)c1ccc2nc3ccccc3nc2c1 [MLS000595212, N,N-diethylphenazine-2-carboxamide] | identified by dose dependency; also recorded: exhibited dose dependency |
| C=CCSc1nnc(-c2ccc([N+](=O)[O-])cc2)o1 [MLS000662516, 2-(4-nitrophenyl)-5-prop-2-enylsulfanyl-1,3,4-oxadiazole] | identified by dose dependency; also recorded: exhibited dose dependency |
| C#CCSc1nnc(-c2ccc([N+](=O)[O-])cc2)o1 [MLS000663774, 2-(4-nitrophenyl)-5-prop-2-ynylsulfanyl-1,3,4-oxadiazole] | identified by dose dependency; also recorded: exhibited dose dependency |
| COc1cccc2nc3cc(C)c(C)cc3nc12 [MLS000756830, 1-methoxy-7,8-dimethylphenazine] | identified by dose dependency; also recorded: exhibited dose dependency |
| COc1ccc2nc3ccccc3nc2c1 [MLS000768124, 2-methoxyphenazine] | identified by dose dependency; also recorded: exhibited dose dependency |
| OCC[n+]1c2ccccc2nc2ccc(N3CCOCC3)cc21 [MLS000768911, 2-(3-morpholin-4-ylphenazin-5-ium-5-yl)ethanolperchlorate] | identified by dose dependency; also recorded: exhibited dose dependency |
| CCC(Nc1ccccc1O)=C1C(=O)CC(c2ccccc2)CC1=O (centres unmarked) [MLS000779260, 2-[1-(2-hydroxyanilino)propylidene]-5-phenylcyclohexane-1,3-dione] | identified by dose dependency; also recorded: exhibited dose dependency |
| CSc1nnc(-c2ccc([N+](=O)[O-])cc2)o1 [MLS000855890, 2-methylsulfanyl-5-(4-nitrophenyl)-1,3,4-oxadiazole] | identified by dose dependency; also recorded: exhibited dose dependency |
| COC(=O)c1cccc2nc3c(C(C)O)cccc3nc12 (centres unmarked) [MLS000863638, methyl 6-(1-hydroxyethyl)phenazine-1-carboxylate] | identified by dose dependency; also recorded: exhibited dose dependency |
| O=C(c1cccc2nc3ccccc3nc12)N1CCOCC1 [MLS001044337, morpholin-4-yl(phenazin-1-yl)methanone] | identified by dose dependency; also recorded: exhibited dose dependency |
| COc1ccc2nc3ccccc3nc2c1N [MLS001044341, 2-methoxyphenazin-1-amine] | identified by dose dependency; also recorded: exhibited dose dependency |
| CNC(=O)c1cccc2nc3ccccc3nc12 [MLS001044346, N-methylphenazine-1-carboxamide] | identified by dose dependency; also recorded: exhibited dose dependency |
| CC(=O)Nc1ccc2nc3ccccc3nc2c1 [MLS001044354, N-phenazin-2-ylacetamide] | identified by dose dependency; also recorded: exhibited dose dependency |
| COc1ccc2nc3ccccc3nc2c1 [MLS001048992, 2-methoxyphenazine] | identified by dose dependency; also recorded: exhibited dose dependency |
| FC(F)(F)c1nc2cc3nc4ccccc4nc3cc2[nH]1 [MLS001049309, 2-(trifluoromethyl)-1H-imidazo[4,5-b]phenazine] | identified by dose dependency; also recorded: exhibited dose dependency |
| CC(C)OC(=O)c1ccc2nc3ccccc3nc2c1 [MLS001173415, propan-2-yl phenazine-2-carboxylate] | identified by dose dependency; also recorded: exhibited dose dependency |
| CC(=NNc1ncnc2sc(C)c(C)c12)c1ccccn1 [MLS001176565, 5,6-dimethyl-N-(1-pyridin-2-ylethylideneamino)thieno[2,3-d]pyrimidin-4-amine] | identified by dose dependency; also recorded: exhibited dose dependency |
| O=c1ccc2[n+]([O-])c3ccccc3n(O)c-2c1 [MLS001208198, 10-hydroxy-5-oxidophenazin-5-ium-2-one] | identified by dose dependency; also recorded: exhibited dose dependency |
| C[C@]12CCC3C(CC[C@H]4C[C@H](O)CC[C@]34C)C1C[C@@H](CCCCl)[C@@H]2O (stereo partly drawn) [MLS002554453, (3R,5S,10S,13S,16R,17S)-16-(3-chloropropyl)-10,13-dimethyl-2,3,4,5,6,7,8,9,11,12,14,15,16,17-tetradecahydro-1H-cyclopenta[a]phenanthrene-3,17-diol] | identified by dose dependency; also recorded: exhibited dose dependency |
| COc1ccc2nc3ccccc3[n+]([O-])c2c1 [MLS002638803, 2-methoxy-10-oxidophenazin-10-ium] | identified by dose dependency; also recorded: exhibited dose dependency |
